The test deals with human F508del-CFTR (Homo sapiens, UniProt P13569, DEL508-508). In words: F508del-CFTR cell surface expression (corrector activity), DiscoveRx ß-galactosidase complementation chemiluminescence assay in recombinant U2OS cell line.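 On all read-outs here: U2OS cells co-expressing ProLink-tagged F508del-CFTR and a membrane-anchored enzyme acceptor, where more surface CFTR restores β-galactosidase activity measured by chemiluminescence.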 Particulars: U2OS cell line, 16h compound incubation; for EC50: EC50, F508del-CFTR cell surface expression, geomean values; for Emax: U2OS, in relation to the Emax of the corrector lumacaftor (=100%), arithmetic mean values.

The structures appear in SMILES notation.

human F508del-CFTR, sequence (P13569 with tags, fused parts or gaps DEL508-508): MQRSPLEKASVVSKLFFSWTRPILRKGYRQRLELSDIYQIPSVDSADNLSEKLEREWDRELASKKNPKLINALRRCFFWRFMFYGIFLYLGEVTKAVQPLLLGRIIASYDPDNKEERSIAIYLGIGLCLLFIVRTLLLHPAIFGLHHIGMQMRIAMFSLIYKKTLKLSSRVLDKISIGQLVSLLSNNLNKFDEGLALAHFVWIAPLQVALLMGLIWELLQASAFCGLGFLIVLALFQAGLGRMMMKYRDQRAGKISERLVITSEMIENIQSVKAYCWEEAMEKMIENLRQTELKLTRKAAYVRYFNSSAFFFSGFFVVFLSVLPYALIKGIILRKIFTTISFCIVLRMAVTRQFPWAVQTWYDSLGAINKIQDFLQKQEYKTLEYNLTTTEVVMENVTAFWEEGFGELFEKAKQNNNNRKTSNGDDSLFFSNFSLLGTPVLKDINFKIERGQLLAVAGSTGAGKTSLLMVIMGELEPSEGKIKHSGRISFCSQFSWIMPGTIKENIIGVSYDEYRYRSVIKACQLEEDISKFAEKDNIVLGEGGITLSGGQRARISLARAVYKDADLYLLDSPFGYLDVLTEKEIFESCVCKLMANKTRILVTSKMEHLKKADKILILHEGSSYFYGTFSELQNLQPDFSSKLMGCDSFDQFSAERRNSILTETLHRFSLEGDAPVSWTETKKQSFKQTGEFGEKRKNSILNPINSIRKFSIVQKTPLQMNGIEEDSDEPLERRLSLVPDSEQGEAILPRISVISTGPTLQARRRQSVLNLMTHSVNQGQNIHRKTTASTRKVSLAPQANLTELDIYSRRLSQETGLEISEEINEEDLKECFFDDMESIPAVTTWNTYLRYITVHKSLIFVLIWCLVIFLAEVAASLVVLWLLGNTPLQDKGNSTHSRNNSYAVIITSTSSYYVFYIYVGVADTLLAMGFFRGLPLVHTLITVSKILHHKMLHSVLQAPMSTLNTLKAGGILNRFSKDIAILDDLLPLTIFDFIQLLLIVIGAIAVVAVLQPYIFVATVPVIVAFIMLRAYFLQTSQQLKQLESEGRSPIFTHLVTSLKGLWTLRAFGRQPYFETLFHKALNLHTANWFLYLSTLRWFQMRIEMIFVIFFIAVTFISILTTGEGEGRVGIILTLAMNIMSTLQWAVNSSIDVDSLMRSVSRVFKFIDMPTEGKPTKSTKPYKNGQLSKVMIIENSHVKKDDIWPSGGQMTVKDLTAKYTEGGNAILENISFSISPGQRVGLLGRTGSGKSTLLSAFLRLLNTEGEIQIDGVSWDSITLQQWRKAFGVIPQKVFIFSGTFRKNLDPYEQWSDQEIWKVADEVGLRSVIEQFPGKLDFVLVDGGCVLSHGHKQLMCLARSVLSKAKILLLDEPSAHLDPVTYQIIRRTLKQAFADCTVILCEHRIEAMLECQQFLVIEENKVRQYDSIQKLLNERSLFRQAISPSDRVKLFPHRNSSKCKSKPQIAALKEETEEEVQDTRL

The EC50 is the concentration at which the effect is half-maximal. The Emax is the size of the effect at its maximum, as opposed to the concentration needed. As for `COc1cccc(CCNC(=O)[C@@H]2CC(=O)N(C)[C@@H](CC(C)C)C(=O)N(CCC3CCCCC3)CC(=O)N[C@H](Cc3ccccc3)COc3cc(C)ncc3C(=O)N2)c1` [Example 271, (3R,9S,13S)-3-benzyl-7-(2-cyclohexylethyl)-9-isobutyl-N-(3-methoxyphenethyl)-10,18-dimethyl-5,8,11,15-tetraoxo-2,3,4,5,6,7,8,9,10,11,12,13,14,15-tetradecahydropyrido[3,4-p][1]oxa[4,7,10,14]tetraazacycloheptadecine-13-carboxamide], the EC50 stood at 266 nM and the Emax came to 185%.
For `COc1cc(OC)c2c(c1)OC[C@@H](Cc1ccccc1)NC(=O)CN(CCC1CCCCC1)C(=O)[C@H](C)N(C)C(=O)C[C@@H](C(=O)NCCc1ccc3c(c1)OCO3)NC2=O` [Example 272, (3R,9S,13S)-N-(2-(benzo[d][1,3]dioxol-5-yl)ethyl)-3-benzyl-7-(2-cyclohexylethyl)-16,18-dimethoxy-9,10-dimethyl-5,8,11,15-tetraoxo-2,3,4,5,6,7,8,9,10,11,12,13,14,15-tetradecahydrobenzo[p][1]oxa[4,7,10,14]tetraazacycloheptadecine-13-carboxamide] the same measures were 374 nM and 176%.
The matching figures for `COc1cccc(CCNC(=O)[C@@H]2CC(=O)N(C)[C@@H](C)C(=O)N(CCC3CCCCC3)CC(=O)N[C@H](Cc3ccccc3)COc3cc(OC)cc(OC)c3C(=O)N2)c1` [Example 273, (3R,9S,13S)-3-benzyl-7-(2-cyclohexylethyl)-16,18-dimethoxy-N-(3-methoxyphenethyl)-9,10-dimethyl-5,8,11,15-tetraoxo-2,3,4,5,6,7,8,9,10,11,12,13,14,15-tetradecahydrobenzo[p][1]oxa[4,7,10,14]tetraazacycloheptadecine-13-carboxamide]: 365 nM and 169%.
The matching figures for `COc1cc(OC)c2c(c1)OC[C@@H](Cc1ccccc1)NC(=O)CN(CCC1CCCCC1)C(=O)[C@H](CC(C)C)N(C)C(=O)C[C@@H](C(=O)NCCc1ccc3c(c1)OCCC3)NC2=O` [Example 275, (3R,9S,13S)-3-benzyl-N-(2-(chroman-7-yl)ethyl)-7-(2-cyclohexylethyl)-9-isobutyl-16,18-dimethoxy-10-methyl-5,8,11,15-tetraoxo-2,3,4,5,6,7,8,9,10,11,12,13,14,15-tetradecahydrobenzo[p][1]oxa[4,7,10,14]tetraazacycloheptadecine-13-carboxamide]: 148 nM and 333%.
On to `COc1cc(OC)c2c(c1)OC[C@@H](Cc1ccccc1)NC(=O)CN(CCC1CCCCC1)C(=O)[C@H](CC(C)C)N(C)C(=O)C[C@@H](C(=O)NCCc1ccc3c(c1)OCC3)NC2=O` [Example 276, (3R,9S,13S)-3-benzyl-7-(2-cyclohexylethyl)-N-(2-(2,3-dihydrobenzofuran-6-yl)ethyl)-9-isobutyl-16,18-dimethoxy-10-methyl-5,8,11,15-tetraoxo-2,3,4,5,6,7,8,9,10,11,12,13,14,15-tetradecahydrobenzo[p][1]oxa[4,7,10,14]tetraazacycloheptadecine-13-carboxamide], for which the EC50 is 91 nM and the Emax stood at 333%.
The matching figures for `COc1cccc(CCNC(=O)[C@@H]2CC(=O)N(C)[C@@H](CC(C)C)C(=O)N(C)CC(=O)N[C@H](Cc3ccccc3)COc3cccc(F)c3C(=O)N2)c1` [Example 277, (3R,9S,13S)-3-benzyl-16-fluoro-9-isobutyl-N-(3-methoxyphenethyl)-7,10-dimethyl-5,8,11,15-tetraoxo-2,3,4,5,6,7,8,9,10,11,12,13,14,15-tetradecahydrobenzo[p][1]oxa[4,7,10,14]tetraazacycloheptadecine-13-carboxamide]: 830 nM and 134%.
For the compound `CC(C)C[C@H]1C(=O)N(C)CC(=O)N[C@H](Cc2ccccc2)COc2cccc(F)c2C(=O)N[C@H](C(=O)NCCc2ccc3c(c2)OCO3)CC(=O)N1C` [Example 278, (3R,9S,13S)-N-(2-(benzo[d][1,3]dioxol-5-yl)ethyl)-3-benzyl-16-fluoro-9-isobutyl-7,10-dimethyl-5,8,11,15-tetraoxo-2,3,4,5,6,7,8,9,10,11,12,13,14,15-tetradecahydrobenzo[p][1]oxa[4,7,10,14]tetraazacycloheptadecine-13-carboxamide], the EC50 came out at 709 nM and the Emax stood at 167%.
Take `CC(C)C[C@H]1C(=O)N(C)CC(=O)N[C@H](Cc2ccccc2)COc2cccc(Cl)c2C(=O)N[C@H](C(=O)NCCc2ccc3c(c2)OCO3)CC(=O)N1C` [Example 279, (3R,9S,13S)-N-(2-(benzo[d][1,3]dioxol-5-yl)ethyl)-3-benzyl-16-chloro-9-isobutyl-7,10-dimethyl-5,8,11,15-tetraoxo-2,3,4,5,6,7,8,9,10,11,12,13,14,15-tetradecahydrobenzo[p][1]oxa[4,7,10,14]tetraazacycloheptadecine-13-carboxamide]: the concentration giving a half-maximal response (EC50) was found to be 643 nM and the Emax came to 112%.
For `CCOc1cccc2c1C(=O)N[C@H](C(=O)NCCc1cccc(OC)c1)CC(=O)N(C)[C@@H](CC(C)C)C(=O)N1CCCC[C@@H]1C(=O)N[C@H](Cc1ccccc1)CO2` [Example 280, (7S,11S,20R,22aR)-20-benzyl-14-ethoxy-7-isobutyl-N-(3-methoxyphenethyl)-8-methyl-6,9,13,22-tetraoxo-1,3,4,6,7,8,9,10,11,12,13,19,20,21,22,22a-hexadecahydro-2H-benzo[p]pyrido[2,1-f][1]oxa[4,7,10,14]tetraazacycloheptadecine-11-carboxamide] the same measures were 297 nM and 188%.
For `COc1nccc2c1C(=O)N[C@H](C(=O)NCCc1ccc3c(c1)OCO3)CC(=O)N(C)[C@@H](CC(C)C)C(=O)N(CCC1CCCCC1)CC(=O)N[C@H](Cc1ccccc1)CO2` [Example 281, (3R,9S,13S)-N-(2-(benzo[d][1,3]dioxol-5-yl)ethyl)-3-benzyl-7-(2-cyclohexylethyl)-9-isobutyl-16-methoxy-10-methyl-5,8,11,15-tetraoxo-2,3,4,5,6,7,8,9,10,11,12,13,14,15-tetradecahydropyrido[3,4-p][1]oxa[4,7,10,14]tetraazacycloheptadecine-13-carboxamide] the same measures were 110 nM and 361%.
The matching figures for `COc1cccc(CCNC(=O)[C@@H]2CC(=O)N(C)[C@@H](CC(C)C)C(=O)N(CCC3CCCCC3)CC(=O)N[C@H](Cc3ccccc3)COc3ccnc(OC)c3C(=O)N2)c1` [Example 282, (3R,9S,13S)-3-benzyl-7-(2-cyclohexylethyl)-9-isobutyl-16-methoxy-N-(3-methoxyphenethyl)-10-methyl-5,8,11,15-tetraoxo-2,3,4,5,6,7,8,9,10,11,12,13,14,15-tetradecahydropyrido[3,4-p][1]oxa[4,7,10,14]tetraazacycloheptadecine-13-carboxamide]: 114 nM and 360%.
As for `CCOc1cccc2c1C(=O)N[C@H](C(=O)NCCc1ccc3c(c1)OCCO3)CC(=O)N(C)[C@@H](CC(C)C)C(=O)C1CCC[C@@H](N1)C(=O)N[C@H](Cc1ccccc1)CO2` [Example 283, (7S,11S,20R,22aR)-20-benzyl-N-(2-(2,3-dihydrobenzo[b][1,4]dioxin-6-yl)ethyl)-14-ethoxy-7-isobutyl-8-methyl-6,9,13,22-tetraoxo-1,3,4,6,7,8,9,10,11,12,13,19,20,21,22,22a-hexadecahydro-2H-benzo[p]pyrido[2,1-f][1]oxa[4,7,10,14]tetraazacycloheptadecine-11-carboxamide], the half-maximal effective concentration (EC50) turned out to be 272 nM and the Emax was determined as 231%.
For `COc1cccc2c1C(=O)N[C@H](C(=O)NCCc1ccc3c(c1)OCO3)CC(=O)N(C)[C@@H](CC(C)C)C(=O)N(C[C@H]1CCCCO1)CC(=O)N[C@H](Cc1ccccc1)CO2` [Example 305, (3R,9S,13S)-N-(2-(benzo[d][1,3]dioxol-5-yl)ethyl)-3-benzyl-9-isobutyl-16-methoxy-10-methyl-5,8,11,15-tetraoxo-7-(((R)-tetrahydro-2H-pyran-2-yl)methyl)-2,3,4,5,6,7,8,9,10,11,12,13,14,15-tetradecahydrobenzo[p][1]oxa[4,7,10,14]tetraazacycloheptadecine-13-carboxamide] the same measures were 533 nM and 123%.
For `COc1cccc2c1C(=O)N[C@H](C(=O)NCCc1ccc3c(c1)OCO3)CC(=O)N(C)[C@@H](CC(C)C)C(=O)N(C[C@@H]1CCCCO1)CC(=O)N[C@H](Cc1ccccc1)CO2` [Example 306, (3R,9S,13S)-N-(2-(benzo[d][1,3]dioxol-5-yl)ethyl)-3-benzyl-9-isobutyl-16-methoxy-10-methyl-5,8,11,15-tetraoxo-7-(((S)-tetrahydro-2H-pyran-2-yl)methyl)-2,3,4,5,6,7,8,9,10,11,12,13,14,15-tetradecahydrobenzo[p][1]oxa[4,7,10,14]tetraazacycloheptadecine-13-carboxamide] the same measures were 923 nM and 139%.
For `COc1cccc2c1C(=O)N[C@H](C(=O)NCCc1ccc3c(c1)OCO3)CC(=O)N(C)[C@@H](CC1CCCC1)C(=O)N(C[C@H]1CCCCO1)CC(=O)N[C@H](Cc1ccccc1)CO2` [Example 307, (3R,9S,13S)-N-(2-(benzo[d][1,3]dioxol-5-yl)ethyl)-3-benzyl-9-(cyclopentylmethyl)-16-methoxy-10-methyl-5,8,11,15-tetraoxo-7-(((R)-tetrahydro-2H-pyran-2-yl)methyl)-2,3,4,5,6,7,8,9,10,11,12,13,14,15-tetradecahydrobenzo[p][1]oxa[4,7,10,14]tetraazacycloheptadecine-13-carboxamide] the same measures were 423 nM and 113%.

Source of the values: patent US20240208992A1, “MACROCYCLES AS CFTR MODULATORS” (Idorsia Pharmaceuticals Ltd, priority 2021, published 2024).
